In patent publication US12018021B2 (UCB Biopharma SRL, priority 2018, dated 2024):

The molecules below were run against IgE-Tb / sFcεRIα-Y131A-AF488 (Homo sapiens, UniProt P01854, N146Q/N252Q) (assay: IgE-Tb / sFcεRIα-Y131A-AF488 FRET assay (protocol for examples 234 to 501)). Settings: examples 234 to 501: compound with IgE-Tb 30 minutes before sFcεRIα-Y131A-AF488, incubated 18 hours at room temperature; read-out: Y131A FRET IC50 range.
Format: binding
Outline: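 Read-out is the 520/490 nm emission ratio (337 nm excitation) after 18 h at room temperature, background subtracted, fitted four-parameter for IC50. Final reagents: 5 nM IgE-Tb, preincubated 30 min with compound (top typically 10 μM, 2% DMSO, 3-fold 10-point), plus 25 nM sFcεRIα-Y131A-AF488.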

IgE-Tb / sFcεRIα-Y131A-AF488, sequence (P01854 whole entry N146Q/N252Q): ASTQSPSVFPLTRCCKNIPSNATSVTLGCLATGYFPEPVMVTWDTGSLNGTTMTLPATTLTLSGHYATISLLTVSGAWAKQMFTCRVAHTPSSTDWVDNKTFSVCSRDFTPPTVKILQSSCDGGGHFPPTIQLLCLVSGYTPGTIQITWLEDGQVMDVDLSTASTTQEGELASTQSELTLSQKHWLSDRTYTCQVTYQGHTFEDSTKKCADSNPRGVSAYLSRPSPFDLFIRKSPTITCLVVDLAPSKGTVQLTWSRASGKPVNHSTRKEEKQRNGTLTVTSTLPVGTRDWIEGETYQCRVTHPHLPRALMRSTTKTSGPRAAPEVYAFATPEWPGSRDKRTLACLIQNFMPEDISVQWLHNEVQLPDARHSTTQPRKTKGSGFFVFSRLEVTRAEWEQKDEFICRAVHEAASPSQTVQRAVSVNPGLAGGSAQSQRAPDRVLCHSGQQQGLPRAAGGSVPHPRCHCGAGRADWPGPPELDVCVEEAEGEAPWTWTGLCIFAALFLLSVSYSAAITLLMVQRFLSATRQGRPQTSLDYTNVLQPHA

Compound | IC50 [nM]
Cn1nc(OC2CC2)cc1Nc1nncn1[C@H]1CCc2sc(NC(=O)[C@H]3C[C@@H]3F)c(C(=O)NCC3CC3)c2C1 [Example 425] | < 1000
Cn1nc(OCC(F)(F)F)cc1Nc1nncn1[C@H]1CCc2sc(NC(=O)[C@H]3C[C@@H]3F)c(C(=O)NCC3CC3)c2C1 [Example 426, (5S)—N-(cyclopropylmethyl)-2-[[(1R,2S)-2-fluorocyclopropanecarbonyl]amino]-5-[3-[[2-methyl-5-(2,2,2-trifluoroethoxy)pyrazol-3-yl]amino]-1,2,4-triazol-4-yl]-4,5,6,7-tetrahydrobenzothiophene-3-carboxamide] | < 1000
O=C(NCC1CC1)c1c(NC(=O)C2CC2)sc2c1C[C@@H](n1cnnc1Nc1ccc(C(F)(F)F)nc1)CC2 [Example 427, (5S)-2-(cyclopropanecarbonylamino)-N-(cyclopropylmethyl)-5-[3-[[6-(trifluoromethyl)-3-pyridyl]amino]-1,2,4-triazol-4-yl]-4,5,6,7-tetrahydrobenzothiophene-3-carboxamide] | < 1000
COc1ccc(Nc2nncn2[C@H]2CCc3sc(NC(=O)C4CC4)c(C(=O)NCC4CC4)c3C2)cn1 [Example 428, (5S)-2-(cyclopropanecarbonylamino)-N-(cyclopropylmethyl)-5-[3-[(6-methoxy-3-pyridyl)amino]-1,2,4-triazol-4-yl]-4,5,6,7-tetrahydrobenzothiophene-3-carboxamide] | < 1000
COc1cc(Nc2nncn2[C@H]2CCc3sc(NC(=O)C4CC4)c(C(=O)NCC4CC4)c3C2)ccn1 [Example 429, (5S)-2-(cyclopropanecarbonylamino)-N-(cyclopropylmethyl)-5-[3-[(2-methoxy-4-pyridyl)amino]-1,2,4-triazol-4-yl]-4,5,6,7-tetrahydrobenzothiophene-3-carboxamide] | < 1000
O=C(NCC1CC1)c1c(NC(=O)C2CC2)sc2c1C[C@@H](n1cnnc1Nc1ccc(Cl)nc1)CC2 [Example 430, (5S)-5-[3-[(6-chloro-3-pyridyl)amino]-1,2,4-triazol-4-yl]-2-(cyclopropanecarbonylamino)-N-(cyclopropylmethyl)-4,5,6,7-tetrahydrobenzothiophene-3-carboxamide] | < 1000
O=C(NCC1CC1)c1c(NC(=O)C2CC2)sc2c1C[C@@H](n1cnnc1Nc1ccnc(Cl)c1)CC2 [Example 431, (5S)-5-[3-[(2-chloro-4-pyridyl)amino]-1,2,4-triazol-4-yl]-2-(cyclopropanecarbonylamino)-N-(cyclopropylmethyl)-4,5,6,7-tetrahydrobenzothiophene-3-carboxamide] | < 1000
COc1ccc(Nc2nncn2[C@H]2CCc3sc(NC(=O)C4CC4)c(C(=O)NCC4CC4)c3C2)c(C)n1 [Example 432, (5S)-2-(cyclopropanecarbonylamino)-N-(cyclopropylmethyl)-5-[3-[(6-methoxy-2-methyl-3-pyridyl)amino]-1,2,4-triazol-4-yl]-4,5,6,7-tetrahydrobenzothiophene-3-carboxamide] | < 1000
O=C(NCC1CC1)c1c(NC(=O)C2CC2)sc2c1C[C@@H](Nc1nc3cccnc3s1)CC2 [Example 433] | < 1000
Cn1nncc1Nc1nncn1[C@H]1CCc2sc(NC(=O)C3CC3)c(C(=O)NCC3CC3)c2C1 [Example 434, (5S)-2-(cyclopropanecarbonylamino)-N-(cyclopropylmethyl)-5-[3-[(3-methyltriazol-4-yl)amino]-1,2,4-triazol-4-yl]-4,5,6,7-tetrahydrobenzothiophene-3-carboxamide] | < 1000
C[C@H]1C[C@@H]1C(=O)Nc1sc2c(c1C(=O)NC[C@@H]1C[C@@H]1F)C[C@@H](n1cnnc1Nc1cc(C(F)F)nn1C)CC2 [Example 435, (5S)-5-[3-[[5-(difluoromethyl)-2-methylpyrazol-3-yl]amino]-1,2,4-triazol-4-yl]-N-[[(1S,2S)-2-fluorocyclopropyl]methyl]-2-[[(1S,2S)-2-methylcyclopropanecarbonyl]amino]-4,5,6,7-tetrahydro-1-benzothiophene-3-carboxamide] | < 1000
C[C@H]1C[C@@H]1C(=O)Nc1sc2c(c1C(=O)NC[C@H]1C[C@@H]1F)C[C@@H](n1cnnc1Nc1cc(C(F)F)nn1C)CC2 [Example 436, (5S)-5-[3-[[5-(difluoromethyl)-2-methylpyrazol-3-yl]amino]-1,2,4-triazol-4-yl]-N-[[(1R,2S)-2-fluorocyclopropyl]methyl]-2-[[(1S,2S)-2-methylcyclopropanecarbonyl]amino]-4,5,6,7-tetrahydro-1-benzothiophene-3-carboxamide] | < 1000
C[C@H]1C[C@@H]1C(=O)Nc1sc2c(c1C(=O)NC[C@H]1C[C@H](F)C1)C[C@@H](n1cnnc1Nc1cc(C(F)F)nn1C)CC2 [Example 437, (5S)-5-[3-[[5-(difluoromethyl)-2-methylpyrazol-3-yl]amino]-1,2,4-triazol-4-yl]-N-[trans-(3-fluorocyclobutyl)methyl]-2-[[(1S,2S)-2-methylcyclopropanecarbonyl]amino]-4,5,6,7-tetrahydro-1-benzothiophene-3-carboxamide] | < 1000
C[C@H]1C[C@@H]1C(=O)Nc1sc2c(c1C(=O)N[C@H]1C[C@H](F)C1)C[C@@H](n1cnnc1Nc1cc(C(F)F)nn1C)CC2 [Example 438, (5S)-5-[3-[[5-(difluoromethyl)-2-methylpyrazol-3-yl]amino]-1,2,4-triazol-4-yl]-N-(trans-3-fluorocyclobutyl)-2-[[(1S,2S)-2-methylcyclopropanecarbonyl]amino]-4,5,6,7-tetrahydro-1-benzothiophene-3-carboxamide] | < 1000
C[C@H]1C[C@@H]1C(=O)Nc1sc2c(c1C(=O)NC1CC(F)(F)C1)C[C@@H](n1cnnc1Nc1cc(C(F)F)nn1C)CC2 [Example 439, (5S)—N-(3,3-difluorocyclobutyl)-5-[3-[[5-(difluoromethyl)-2-methylpyrazol-3-yl]amino]-1,2,4-triazol-4-yl]-2-[[(1S,2S)-2-methylcyclopropanecarbonyl]amino]-4,5,6,7-tetrahydro-1-benzothiophene-3-carboxamide] | < 1000
C[C@H]1C[C@@H]1C(=O)Nc1sc2c(c1C(=O)NCC1CC(F)(F)C1)C[C@@H](n1cnnc1Nc1cc(C(F)F)nn1C)CC2 [Example 440, (5S)—N-[(3,3-difluorocyclobutyl)methyl]-5-[3-[[5-(difluoromethyl)-2-methylpyrazol-3-yl]amino]-1,2,4-triazol-4-yl]-2-[[(1S,2S)-2-methylcyclopropanecarbonyl]amino]-4,5,6,7-tetrahydro-1-benzothiophene-3-carboxamide] | < 1000
C[C@H]1C[C@@H]1C(=O)Nc1sc2c(c1C(=O)NCC1CC1(F)F)C[C@@H](n1cnnc1Nc1cc(C(F)F)nn1C)CC2 (stereo partly drawn) [Example 441, (5S)—N-[(2,2-difluorocyclopropyl)methyl]-5-[3-[[5-(difluoromethyl)-2-methylpyrazol-3-yl]amino]-1,2,4-triazol-4-yl]-2-[[(1S,2S)-2-methylcyclopropanecarbonyl]amino]-4,5,6,7-tetrahydro-1-benzothiophene-3-carboxamide] | < 1000
C[C@H]1C[C@@H]1C(=O)Nc1sc2c(c1C(=O)NC[C@H]1C[C@@H](F)C1)C[C@@H](n1cnnc1Nc1cc(C(F)F)nn1C)CC2 [Example 442, (5S)-5-[3-[[5-(difluoromethyl)-2-methylpyrazol-3-yl]amino]-1,2,4-triazol-4-yl]-N-[cis-(3-fluorocyclobutyl)methyl]-2-[[(1S,2S)-2-methylcyclopropanecarbonyl]amino]-4,5,6,7-tetrahydro-1-benzothiophene-3-carboxamide] | < 1000
C[C@H]1C[C@@H]1C(=O)Nc1sc2c(c1C(=O)NC[C@H]1C[C@H]1F)C[C@@H](n1cnnc1Nc1cc(C(F)F)nn1C)CC2 [Example 443, (5S)-5-[3-[[5-(difluoromethyl)-2-methylpyrazol-3-yl]amino]-1,2,4-triazol-4-yl]-N-[[(1R,2R)-2-fluorocyclopropyl]methyl]-2-[[(1S,2S)-2-methylcyclopropanecarbonyl]amino]-4,5,6,7-tetrahydro-1-benzothiophene-3-carboxamide] | < 1000
Cn1nc(OC(F)F)cc1Nc1nncn1[C@H]1CCc2sc(NC(=O)C3CC3)c(C(=O)NCC3CC34CC4)c2C1 (stereo partly drawn) [Example 444, (5S)-2-(cyclopropanecarbonylamino)-5-[3-[[5-(difluoromethoxy)-2-methylpyrazol-3-yl]amino]-1,2,4-triazol-4-yl]-N-(spiro[2.2]pentan-2-ylmethyl)-4,5,6,7-tetrahydro-1-benzothiophene-3-carboxamide] | < 1000
Cn1nc(OC(F)F)cc1Nc1nncn1[C@H]1CCc2sc(NC(=O)C3CC3)c(C(=O)NCC3CCC3)c2C1 [Example 445, (5S)—N-(cyclobutylmethyl)-2-(cyclopropanecarbonylamino)-5-[3-[[5-(difluoromethoxy)-2-methylpyrazol-3-yl]amino]-1,2,4-triazol-4-yl]-4,5,6,7-tetrahydro-1-benzothiophene-3-carboxamide] | < 1000
Cn1nc(OC(F)F)cc1Nc1nncn1[C@H]1CCc2sc(NC(=O)C3CC3)c(C(=O)NCC3CC(F)(F)C3)c2C1 [Example 446, (5S)-2-(cyclopropanecarbonylamino)-N-[(3,3-difluorocyclobutyl)methyl]-5-[3-[[5-(difluoromethoxy)-2-methylpyrazol-3-yl]amino]-1,2,4-triazol-4-yl]-4,5,6,7-tetrahydro-1-benzothiophene-3-carboxamide] | < 1000
Cn1nc(OC(F)F)cc1Nc1nncn1[C@H]1CCc2sc(NC(=O)C3CC3)c(C(=O)N[C@H]3C[C@@H](F)C3)c2C1 [Example 447, (5S)-2-(cyclopropanecarbonylamino)-5-[3-[[5-(difluoromethoxy)-2-methylpyrazol-3-yl]amino]-1,2,4-triazol-4-yl]-N-(cis-3-fluorocyclobutyl)-4,5,6,7-tetrahydro-1-benzothiophene-3-carboxamide] | < 1000
